Laboratory results published in patent US20200370087A1, “METHOD FOR DETERMINING MICROBIAL SUSCEPTIBILITY TO ANTIBIOTIC AGENTS” (Ascilion AB, priority 2017, published 2020).

Experiments:
[1] = system: Escherichia coli (ATCC 25922); experiment: Glucose consumption susceptibility test, blood culture diluted in MHB with glucose (Example 1); assay type: cell-based; design: glucose concentration, t = 0 / glucose concentration, t = 60 / glucose concentration, t = 120 / glucose concentration, t = 180 / dC/dT (rate of change in glucose concentration) / glucose concentration, t = 240: unit not given here; details: for F = the rate of change in glucose concentration in relation to the reference / dC/dT (rate of change in glucose concentration) / glucose concentration, t = 0 / glucose concentration, t = 60 / glucose concentration, t = 120 / glucose concentration, t = 180 / glucose concentration, t = 240: E. coli; for glucose concentration, t = 0: 0 minutes; for glucose concentration, t = 60: 60 minutes; for glucose concentration, t = 120: 120 minutes; for glucose concentration, t = 180: 180 minutes; for glucose concentration, t = 240: 240 minutes
Experimental: (§1) Strains of Escherichia coli (ATCC 25922), Enterococcus faecalis (ATCC 29212) and Staphylococcus aureus (ATCC 29213) were inoculated in blood culture bottles (SVA, Uppsala, Sweden) and cultivated according to the manufacturer's instructions until positive.
(§2) Medium from each blood culture bottle was diluted 1:100 with cation adjusted Mueller-Hinton broth (SVA, Uppsala, Sweden) supplemented with glucose to a concentration of 1.0 mg/mL.
(§3) Glucose concentrations were measured at 0, 60, 120, 180, and 240 minutes using a WaveSense Jazz glucometer (AgaMatrix, Inc., Salem, N.H., USA) with accompanying test strips.
(§4) Susceptibility scores corresponding to MIC values were calculated as described above. A 80% threshold was applied, i.e. the lowest concentration of antibiotic that entailed a rate of change in glucose concentration that was equal to or less than 80% of the reference was selected as the Minimal Inhibitory Concentration. The rate of change was calculated between the measurements at 60 and 180 minutes.

[2] = system: Staphylococcus aureus (ATCC 29213); experiment: as above; assay type: cell-based; design: glucose concentration, t = 0 / glucose concentration, t = 60 / glucose concentration, t = 120 / glucose concentration, t = 180 / glucose concentration, t = 240 / dC/dT (rate of change in glucose concentration): unit not given here; details: for F = the rate of change in glucose concentration in relation to the reference / dC/dT (rate of change in glucose concentration) / glucose concentration, t = 0 / glucose concentration, t = 60 / glucose concentration, t = 120 / glucose concentration, t = 180 / glucose concentration, t = 240: S. aureus; for glucose concentration, t = 0: 0 minutes; for glucose concentration, t = 60: 60 minutes; for glucose concentration, t = 120: 120 minutes; for glucose concentration, t = 180: 180 minutes; for glucose concentration, t = 240: 240 minutes
Experimental: as §1, §2, §3, §4

[3] = system: Staphylococcus aureus ATCC 29213; details: S.aureus, cited from earlier work

With gentamicin the “F = the rate of change in glucose concentration in relation to the reference” value (from here on “F = the rate of change”) ([1]; antibiotic 0.25 μg/mL) was 139%, the “dC/dT (rate of change in glucose concentration)” value ([1]; antibiotic 0.25 μg/mL) was 86 and the “glucose concentration, t = 0” value ([1]; antibiotic 0.25 μg/mL) was 149. The “glucose concentration, t = 60” value ([1]; antibiotic 0.25 μg/mL) was 152, the “glucose concentration, t = 120” value ([1]; antibiotic 0.25 μg/mL) was 144 and the “glucose concentration, t = 180” value ([1]; antibiotic 0.25 μg/mL) was 58. The “F = the rate of change” value ([1]; antibiotic 0.5 μg/mL) was 121%, the “dC/dT (rate of change in glucose concentration)” value ([1]; antibiotic 0.5 μg/mL) was 75 and the “glucose concentration, t = 0” value ([1]; antibiotic 0.5 μg/mL) was 144. The “glucose concentration, t = 60” value ([1]; antibiotic 0.5 μg/mL) was 147, the “glucose concentration, t = 120” value ([1]; antibiotic 0.5 μg/mL) was 147 and the “glucose concentration, t = 180” value ([1]; antibiotic 0.5 μg/mL) was 72. For the same substance, the “F = the rate of change” value ([1]; antibiotic 1 μg/mL) was 77%, the “dC/dT (rate of change in glucose concentration)” value ([1]; antibiotic 1 μg/mL) was 48 and the “glucose concentration, t = 0” value ([1]; antibiotic 1 μg/mL) was 144. For the same substance, the “glucose concentration, t = 60” value ([1]; antibiotic 1 μg/mL) was 155, the “glucose concentration, t = 120” value ([1]; antibiotic 1 μg/mL) was 148 and the “glucose concentration, t = 180” value ([1]; antibiotic 1 μg/mL) was 111. For the same substance, the “glucose concentration, t = 240” value ([1]; antibiotic 1 μg/mL) was 53, the “F = the rate of change” value ([1]; antibiotic 2 μg/mL) was 9% and the “dC/dT (rate of change in glucose concentration)” value ([1]; antibiotic 2 μg/mL) was 6. The “glucose concentration, t = 60” value ([1]; antibiotic 2 μg/mL) was 161, the “glucose concentration, t = 120” value ([1]; antibiotic 2 μg/mL) was 151 and the “glucose concentration, t = 180” value ([1]; antibiotic 2 μg/mL) was 143. For the same substance, the “glucose concentration, t = 240” value ([1]; antibiotic 2 μg/mL) was 140, the “F = the rate of change” value ([1]; antibiotic 4 μg/mL) was 7% and the “dC/dT (rate of change in glucose concentration)” value ([1]; antibiotic 4 μg/mL) was 5. The “glucose concentration, t = 0” value ([1]; antibiotic 4 μg/mL) was 147, the “glucose concentration, t = 60” value ([1]; antibiotic 4 μg/mL) was 163 and the “glucose concentration, t = 120” value ([1]; antibiotic 4 μg/mL) was 157. For the same substance, the “glucose concentration, t = 180” value ([1]; antibiotic 4 μg/mL) was 148, the “glucose concentration, t = 240” value ([1]; antibiotic 4 μg/mL) was 148 and the “F = the rate of change” value ([1]; antibiotic 8 μg/mL) was 7%. For the same substance, the “dC/dT (rate of change in glucose concentration)” value ([1]; antibiotic 8 μg/mL) was 5, the “glucose concentration, t = 0” value ([1]; antibiotic 8 μg/mL) was 144 and the “glucose concentration, t = 60” value ([1]; antibiotic 8 μg/mL) was 156. For the same substance, the “glucose concentration, t = 120” value ([1]; antibiotic 8 μg/mL) was 153, the “glucose concentration, t = 180” value ([1]; antibiotic 8 μg/mL) was 150 and the “glucose concentration, t = 240” value ([1]; antibiotic 8 μg/mL) was 144. For the same substance, the “F = the rate of change” value ([1]; antibiotic 16 μg/mL) was 1%, the “dC/dT (rate of change in glucose concentration)” value ([1]; antibiotic 16 μg/mL) was 1 and the “glucose concentration, t = 0” value ([1]; antibiotic 16 μg/mL) was 143. For the same substance, the “glucose concentration, t = 60” value ([1]; antibiotic 16 μg/mL) was 155, the “glucose concentration, t = 120” value ([1]; antibiotic 16 μg/mL) was 152 and the “glucose concentration, t = 180” value ([1]; antibiotic 16 μg/mL) was 149. The “glucose concentration, t = 240” value ([1]; antibiotic 16 μg/mL) was 153, the “F = the rate of change” value ([1]; antibiotic 32 μg/mL) was 6% and the “dC/dT (rate of change in glucose concentration)” value ([1]; antibiotic 32 μg/mL) was 4. The “glucose concentration, t = 0” value ([1]; antibiotic 32 μg/mL) was 148, the “glucose concentration, t = 60” value ([1]; antibiotic 32 μg/mL) was 158 and the “glucose concentration, t = 120” value ([1]; antibiotic 32 μg/mL) was 155. For the same substance, the “glucose concentration, t = 180” value ([1]; antibiotic 32 μg/mL) was 150, the “glucose concentration, t = 240” value ([1]; antibiotic 32 μg/mL) was 147 and the “MIC, Measured” value ([1]; E.coli, 80% threshold of reference rate of change, 60 to 180 minutes, N/A = not susceptible, no MIC value can be calculated) was 1 µg/mL. The “F = the rate of change” value ([2]; antibiotic 0.25 μg/mL) was 66%, the “dC/dT (rate of change in glucose concentration)” value ([2]; antibiotic 0.25 μg/mL) was 22 and the “glucose concentration, t = 0” value ([2]; antibiotic 0.25 μg/mL) was 143. For the same substance, the “glucose concentration, t = 60” value ([2]; antibiotic 0.25 μg/mL) was 146, the “glucose concentration, t = 120” value ([2]; antibiotic 0.25 μg/mL) was 140 and the “glucose concentration, t = 180” value ([2]; antibiotic 0.25 μg/mL) was 102. For the same substance, the “glucose concentration, t = 240” value ([2]; antibiotic 0.25 μg/mL) was 55, the “F = the rate of change” value ([2]; antibiotic 0.5 μg/mL) was 57% and the “dC/dT (rate of change in glucose concentration)” value ([2]; antibiotic 0.5 μg/mL) was 19. For the same substance, the “glucose concentration, t = 0” value ([2]; antibiotic 0.5 μg/mL) was 143, the “glucose concentration, t = 60” value ([2]; antibiotic 0.5 μg/mL) was 154 and the “glucose concentration, t = 120” value ([2]; antibiotic 0.5 μg/mL) was 137. The “glucose concentration, t = 180” value ([2]; antibiotic 0.5 μg/mL) was 116, the “glucose concentration, t = 240” value ([2]; antibiotic 0.5 μg/mL) was 78 and the “F = the rate of change” value ([2]; antibiotic 1 μg/mL) was 30%. The “dC/dT (rate of change in glucose concentration)” value ([2]; antibiotic 1 μg/mL) was 10, the “glucose concentration, t = 0” value ([2]; antibiotic 1 μg/mL) was 137 and the “glucose concentration, t = 60” value ([2]; antibiotic 1 μg/mL) was 154. For the same substance, the “glucose concentration, t = 120” value ([2]; antibiotic 1 μg/mL) was 146, the “glucose concentration, t = 180” value ([2]; antibiotic 1 μg/mL) was 134 and the “glucose concentration, t = 240” value ([2]; antibiotic 1 μg/mL) was 119. For the same substance, the “F = the rate of change” value ([2]; antibiotic 2 μg/mL) was 12%, the “dC/dT (rate of change in glucose concentration)” value ([2]; antibiotic 2 μg/mL) was 4 and the “glucose concentration, t = 0” value ([2]; antibiotic 2 μg/mL) was 144. For the same substance, the “glucose concentration, t = 60” value ([2]; antibiotic 2 μg/mL) was 154, the “glucose concentration, t = 180” value ([2]; antibiotic 2 μg/mL) was 146 and the “glucose concentration, t = 240” value ([2]; antibiotic 2 μg/mL) was 148. For the same substance, the “F = the rate of change” value ([2]; antibiotic 4 μg/mL) was 10%, the “dC/dT (rate of change in glucose concentration)” value ([2]; antibiotic 4 μg/mL) was 4 and the “glucose concentration, t = 60” value ([2]; antibiotic 4 μg/mL) was 157. For the same substance, the “glucose concentration, t = 120” value ([2]; antibiotic 4 μg/mL) was 147, the “glucose concentration, t = 180” value ([2]; antibiotic 4 μg/mL) was 150 and the “glucose concentration, t = 240” value ([2]; antibiotic 4 μg/mL) was 149. For the same substance, the “F = the rate of change” value ([2]; antibiotic 8 μg/mL) was 0%, the “dC/dT (rate of change in glucose concentration)” value ([2]; antibiotic 8 μg/mL) was 0 and the “glucose concentration, t = 0” value ([2]; antibiotic 8 μg/mL) was 142. For the same substance, the “glucose concentration, t = 60” value ([2]; antibiotic 8 μg/mL) was 154, the “glucose concentration, t = 120” value ([2]; antibiotic 8 μg/mL) was 150 and the “glucose concentration, t = 180” value ([2]; antibiotic 8 μg/mL) was 154. For the same substance, the “glucose concentration, t = 240” value ([2]; antibiotic 8 μg/mL) was 140, the “F = the rate of change” value ([2]; antibiotic 16 μg/mL) was 0% and the “dC/dT (rate of change in glucose concentration)” value ([2]; antibiotic 16 μg/mL) was 0. For the same substance, the “glucose concentration, t = 0” value ([2]; antibiotic 16 μg/mL) was 139, the “glucose concentration, t = 60” value ([2]; antibiotic 16 μg/mL) was 145 and the “glucose concentration, t = 120” value ([2]; antibiotic 16 μg/mL) was 150. For the same substance, the “glucose concentration, t = 180” value ([2]; antibiotic 16 μg/mL) was 145, the “glucose concentration, t = 240” value ([2]; antibiotic 16 μg/mL) was 145 and the “F = the rate of change” value ([2]; antibiotic 32 μg/mL) was 3%. For the same substance, the “dC/dT (rate of change in glucose concentration)” value ([2]; antibiotic 32 μg/mL) was 1, the “glucose concentration, t = 0” value ([2]; antibiotic 32 μg/mL) was 144 and the “glucose concentration, t = 60” value ([2]; antibiotic 32 μg/mL) was 148. The “glucose concentration, t = 120” value ([2]; antibiotic 32 μg/mL) was 145, the “glucose concentration, t = 180” value ([2]; antibiotic 32 μg/mL) was 146 and the “glucose concentration, t = 240” value ([2]; antibiotic 32 μg/mL) was 145. For the same substance, the “MIC, Measured” value ([2]; S.aureus, 80% threshold of reference rate of change, 60 to 180 minutes) was 0.25 µg/mL, the “MIC, EUCAST, range in parentheses” value ([3]; range obtained by EUCAST from ISO 20776-1: 2006) was “(0.125-1) ug/mL” and the “MIC, EUCAST” value ([3]; reference value, Mueller-Hinton agar, incubation 18±2 h) was 0.25 to 0.5 µg/mL.
